Activity calls are given as the source filed them.
Experiments:
fMet-Leu-Phe receptor = target: T1, fMet-Leu-Phe receptor (Homo sapiens, UniProt P21462); assay: formyl peptide receptor binders – dose response (AID 519); assay type: functional
T1 sequence (P21462 whole entry): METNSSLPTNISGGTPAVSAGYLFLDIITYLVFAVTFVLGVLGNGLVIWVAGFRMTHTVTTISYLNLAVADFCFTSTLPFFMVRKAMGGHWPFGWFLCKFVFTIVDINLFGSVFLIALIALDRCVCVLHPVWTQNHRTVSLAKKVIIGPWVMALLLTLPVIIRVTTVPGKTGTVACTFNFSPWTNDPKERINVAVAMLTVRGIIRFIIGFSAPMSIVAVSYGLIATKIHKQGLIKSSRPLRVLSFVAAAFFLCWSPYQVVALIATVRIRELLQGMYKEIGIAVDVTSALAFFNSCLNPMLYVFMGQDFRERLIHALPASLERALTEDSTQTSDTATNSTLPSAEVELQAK

[1] = target: T2, Mannose-6-phosphate isomerase (Homo sapiens, UniProt P34949); assay: MPI enzyme activity inhibition – biochemical, fluorescence intensity, coupled assay, primary screen (AID 1209)
T2 sequence (P34949 whole entry): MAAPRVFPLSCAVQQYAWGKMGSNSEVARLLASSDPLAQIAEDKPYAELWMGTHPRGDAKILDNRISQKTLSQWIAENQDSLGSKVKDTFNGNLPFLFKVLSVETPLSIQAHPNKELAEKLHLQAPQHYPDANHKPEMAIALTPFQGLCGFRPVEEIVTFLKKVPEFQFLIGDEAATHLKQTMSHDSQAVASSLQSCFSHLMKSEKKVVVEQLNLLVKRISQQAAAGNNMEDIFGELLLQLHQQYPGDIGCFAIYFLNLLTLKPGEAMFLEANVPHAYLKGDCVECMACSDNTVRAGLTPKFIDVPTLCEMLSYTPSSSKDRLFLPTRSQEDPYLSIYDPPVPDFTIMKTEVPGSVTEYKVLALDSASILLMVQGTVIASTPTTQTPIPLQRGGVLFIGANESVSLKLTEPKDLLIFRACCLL

[2] = target: T2, Mannose-6-phosphate isomerase; assay: MPI inhibition at elevated mannose 6-phosphate – biochemical, fluorescence intensity, high mannose 6-phosphate, primary screen (AID 1220)
H9c2 = assay: cells; assay type: functional, cell-based; settings: Rattus norvegicus, H9c2, Myocardium;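 also: confirmatory concentration-response retest of ultra-high-throughput screening hits for modulation of myocardial damage; cell death induced by hydrogen peroxide oxidative stress; compound pretreatment for 60 min then peroxide exposure for 2 h; potency is for protecting the cells against peroxide damage rather than for killing them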
Caspase-6 = target: T3, Caspase-6 (Homo sapiens, UniProt P55212); assay: inhibition of CASP6 peptide cleavage – biochemical, VEID-R110 fluorescence, cherry-pick, dose response (AID 720632)
T3 sequence (P55212 whole entry): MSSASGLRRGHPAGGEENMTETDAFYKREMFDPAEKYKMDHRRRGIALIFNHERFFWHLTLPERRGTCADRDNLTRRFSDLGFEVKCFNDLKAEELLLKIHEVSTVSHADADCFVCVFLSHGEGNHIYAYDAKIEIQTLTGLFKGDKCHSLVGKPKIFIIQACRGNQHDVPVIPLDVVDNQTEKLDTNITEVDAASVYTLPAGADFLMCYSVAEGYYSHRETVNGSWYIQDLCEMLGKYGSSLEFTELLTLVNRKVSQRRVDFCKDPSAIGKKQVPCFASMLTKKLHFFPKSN

Cytochrome P450 2C19 = Cytochrome P450 2C19 (Homo sapiens, UniProt P33261); assay: Cytochrome panel assay with activity outcomes. Panel member name: p450-cyp2c19 Compounds with AC50 equal or less than 10 uM are considered active; assay type: functional; settings: read-out: AC50
Cytochrome P450 2C9 = Cytochrome P450 2C9 (Homo sapiens, UniProt P11712)
[3] = target: T4, RNA-binding protein pos-1 (Caenorhabditis elegans, UniProt G5EF15); assay: disruptors of C. elegans POS-1 RNA interaction – biochemical, fluorescence polarization, dose response (AID 1964);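 also: purified POS-1 fused to maltose binding protein made in E. coli; potency of compounds blocking POS-1 binding to fluorescent RNA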
T4 sequence (G5EF15 whole entry): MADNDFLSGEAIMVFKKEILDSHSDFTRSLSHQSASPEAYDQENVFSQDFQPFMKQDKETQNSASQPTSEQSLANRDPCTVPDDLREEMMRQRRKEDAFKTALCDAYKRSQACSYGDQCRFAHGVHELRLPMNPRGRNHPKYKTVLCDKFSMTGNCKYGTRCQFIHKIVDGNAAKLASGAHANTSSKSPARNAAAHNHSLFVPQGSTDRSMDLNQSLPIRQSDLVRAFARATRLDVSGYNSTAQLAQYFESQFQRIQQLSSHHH

[4] = tested on: Streptococcus sp. 'group A'; assay: Streptococcus pyogenes SK(-)GAS viability under kanamycin – luminescence, BacTiterGlo, confirmation, counter-screen for streptokinase expression inhibitor project, dose response (AID 1900); assay type: functional, organism-based; settings: Streptococcus sp. 'group A'
[5] = target: T5, Zinc finger protein mex-5 (Caenorhabditis elegans, UniProt Q9XUB2); assay: potency of MEX-5 RNA-binding blockers – biochemical, C. elegans, fluorescence polarization, dose response (AID 1960)
T5 sequence (Q9XUB2 whole entry): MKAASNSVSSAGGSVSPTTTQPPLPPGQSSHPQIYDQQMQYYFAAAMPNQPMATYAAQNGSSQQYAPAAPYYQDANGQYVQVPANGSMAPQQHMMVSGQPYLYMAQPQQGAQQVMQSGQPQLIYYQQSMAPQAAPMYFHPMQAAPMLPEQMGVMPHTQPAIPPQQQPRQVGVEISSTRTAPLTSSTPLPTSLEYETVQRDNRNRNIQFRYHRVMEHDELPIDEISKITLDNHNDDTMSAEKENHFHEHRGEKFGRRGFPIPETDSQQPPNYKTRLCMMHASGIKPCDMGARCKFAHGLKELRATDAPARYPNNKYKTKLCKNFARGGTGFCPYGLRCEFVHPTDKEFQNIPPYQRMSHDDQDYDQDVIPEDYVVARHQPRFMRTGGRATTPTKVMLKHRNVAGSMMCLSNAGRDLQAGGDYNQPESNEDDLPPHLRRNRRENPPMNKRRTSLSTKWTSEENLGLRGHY

Streptokinase A = target: T6, Streptokinase A (Streptococcus pyogenes serotype M1, UniProt P10520); assay: viability-normalized secreted streptokinase activity reduction – plasminogen activation absorbance, OD405, dose response (AID 1914); assay type: functional, Streptococcus pyogenes M1 GAS;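 also: secreted streptokinase activity via plasminogen activation per viability signal from cell pellet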
T6 sequence (P10520 whole entry): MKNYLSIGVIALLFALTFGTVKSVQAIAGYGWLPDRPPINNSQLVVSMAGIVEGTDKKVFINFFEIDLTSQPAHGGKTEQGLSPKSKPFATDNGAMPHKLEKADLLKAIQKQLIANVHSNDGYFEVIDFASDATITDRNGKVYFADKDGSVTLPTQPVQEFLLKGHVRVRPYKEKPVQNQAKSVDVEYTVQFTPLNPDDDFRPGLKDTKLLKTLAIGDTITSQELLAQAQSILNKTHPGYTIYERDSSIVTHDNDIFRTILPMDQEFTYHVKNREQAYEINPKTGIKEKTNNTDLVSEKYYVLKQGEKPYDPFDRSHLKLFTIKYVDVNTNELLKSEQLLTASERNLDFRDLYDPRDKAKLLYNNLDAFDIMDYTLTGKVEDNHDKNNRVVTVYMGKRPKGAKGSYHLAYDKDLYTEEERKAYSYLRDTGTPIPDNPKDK

Streptococcus = assay: GAS UMAA2166 growth inhibition – luminescence, BacTiterGlo, counter-screen for streptokinase expression inhibitor project, dose response (AID 1915); assay type: functional, organism-based; settings: Streptococcus;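 also: potency for reduction of bacterial viability or growth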
Nonstructural protein 1 = Nonstructural protein 1 (Influenza A virus, UniProt Q194T2); assay type: functional, Influenza A virus (A/California/07/2009(H1N1))
[6] = NIH-3T3 fibroblast cytotoxicity, dose response, cytotoxicity control, cell-based, fluorescence, Alamar Blue, secondary assay (AID 2327); assay type: functional;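 also: NIH-3T3 mouse fibroblasts cultured with fluconazole at 8 µg/mL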
[7] = fluconazole-exposed Candida albicans growth modulators – fluorescence, retest, confirmation (AID 2467); assay type: functional, cell-based
[8] = Trypanosoma cruzi growth suppression in host cells – NIH3T3 host cells, beta-gal luminescence, confirmation (AID 2044); assay type: functional, cell-based;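 also: intracellular parasites grown in NIH/3T3 mouse fibroblasts as host cells; luminescent beta-galactosidase reporter signal from transgenic T. cruzi replicating inside host cells; inhibitors lower the luminescence signal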
[9] = NIH3T3 cell viability loss – ATP luminescence, mouse fibroblasts, counter-screen, dose response (AID 2010); assay type: functional, cell-based;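 also: cells exposed to compound for about 90 hours before reading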
[10] = target: Induced myeloid leukemia cell differentiation protein Mcl-1 (Homo sapiens, UniProt Q07820); assay type: functional
INS1 = assay: INS-1E survival protection against cytokine death – cell-based, luminescence, retest, dose response (AID 449756); assay type: functional; settings: Rattus norvegicus;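 also: cell death triggered by IL-1 beta plus TNF-alpha plus IFN-gamma mixture; protective hits raise ATP signal compared with cytokine alone wells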
Albumin = Albumin (Bos taurus, UniProt P02769); assay: Counterscreen for inhibitors of T-cell receptor (TCR)-CD3 interaction: Fluorescence-based biochemical high throughput dose response assay to identify inhibitors of T-cell receptor (TCR)-CD3 interaction using a TAMRA-labeled BSA probe.; assay type: functional
HeLa = assay: viability loss in HeLa cells – cell-based, ATP luminescence, cherry-pick samples, cytotoxicity control, dose response (AID 687004); assay type: functional; settings: Homo sapiens

Cytochrome P450 2C9, sequence (P11712 whole entry, the tested form may be a part): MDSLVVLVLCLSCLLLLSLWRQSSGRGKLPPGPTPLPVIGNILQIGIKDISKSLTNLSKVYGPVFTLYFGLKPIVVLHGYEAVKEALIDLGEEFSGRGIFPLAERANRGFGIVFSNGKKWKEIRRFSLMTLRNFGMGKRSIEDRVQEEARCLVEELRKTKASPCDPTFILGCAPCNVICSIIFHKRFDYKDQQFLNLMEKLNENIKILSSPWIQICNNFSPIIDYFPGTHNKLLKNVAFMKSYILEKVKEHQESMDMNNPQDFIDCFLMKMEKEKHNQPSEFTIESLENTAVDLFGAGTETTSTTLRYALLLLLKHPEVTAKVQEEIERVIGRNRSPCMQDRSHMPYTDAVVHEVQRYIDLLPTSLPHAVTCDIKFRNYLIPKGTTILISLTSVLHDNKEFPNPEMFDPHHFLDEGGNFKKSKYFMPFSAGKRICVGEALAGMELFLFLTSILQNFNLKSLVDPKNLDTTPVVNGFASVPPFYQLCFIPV
Cytochrome P450 2C19, sequence (P33261 whole entry): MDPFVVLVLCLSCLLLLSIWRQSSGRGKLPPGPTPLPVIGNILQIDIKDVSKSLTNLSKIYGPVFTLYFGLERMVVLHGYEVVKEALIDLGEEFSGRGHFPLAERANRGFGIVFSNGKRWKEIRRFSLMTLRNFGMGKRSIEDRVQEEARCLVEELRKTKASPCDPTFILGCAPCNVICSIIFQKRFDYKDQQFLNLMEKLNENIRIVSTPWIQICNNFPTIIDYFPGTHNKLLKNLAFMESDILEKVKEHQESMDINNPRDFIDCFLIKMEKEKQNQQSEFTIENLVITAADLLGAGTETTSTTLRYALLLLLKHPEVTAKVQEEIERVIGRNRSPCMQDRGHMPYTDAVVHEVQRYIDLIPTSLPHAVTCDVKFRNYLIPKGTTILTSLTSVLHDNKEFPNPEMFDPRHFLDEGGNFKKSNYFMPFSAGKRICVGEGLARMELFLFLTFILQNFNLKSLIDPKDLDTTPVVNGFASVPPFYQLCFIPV
Induced myeloid leukemia cell differentiation protein Mcl-1, sequence (Q07820 whole entry): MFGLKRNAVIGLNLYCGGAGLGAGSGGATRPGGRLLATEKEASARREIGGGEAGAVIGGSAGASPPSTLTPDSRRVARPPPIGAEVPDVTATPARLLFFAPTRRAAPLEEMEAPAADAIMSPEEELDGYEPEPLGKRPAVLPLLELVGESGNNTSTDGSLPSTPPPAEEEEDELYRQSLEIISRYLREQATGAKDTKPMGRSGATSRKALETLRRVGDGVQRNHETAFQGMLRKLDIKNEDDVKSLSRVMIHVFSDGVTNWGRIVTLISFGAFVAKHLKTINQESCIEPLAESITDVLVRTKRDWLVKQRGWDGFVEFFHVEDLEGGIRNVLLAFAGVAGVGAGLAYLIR
Albumin, sequence (P02769 whole entry): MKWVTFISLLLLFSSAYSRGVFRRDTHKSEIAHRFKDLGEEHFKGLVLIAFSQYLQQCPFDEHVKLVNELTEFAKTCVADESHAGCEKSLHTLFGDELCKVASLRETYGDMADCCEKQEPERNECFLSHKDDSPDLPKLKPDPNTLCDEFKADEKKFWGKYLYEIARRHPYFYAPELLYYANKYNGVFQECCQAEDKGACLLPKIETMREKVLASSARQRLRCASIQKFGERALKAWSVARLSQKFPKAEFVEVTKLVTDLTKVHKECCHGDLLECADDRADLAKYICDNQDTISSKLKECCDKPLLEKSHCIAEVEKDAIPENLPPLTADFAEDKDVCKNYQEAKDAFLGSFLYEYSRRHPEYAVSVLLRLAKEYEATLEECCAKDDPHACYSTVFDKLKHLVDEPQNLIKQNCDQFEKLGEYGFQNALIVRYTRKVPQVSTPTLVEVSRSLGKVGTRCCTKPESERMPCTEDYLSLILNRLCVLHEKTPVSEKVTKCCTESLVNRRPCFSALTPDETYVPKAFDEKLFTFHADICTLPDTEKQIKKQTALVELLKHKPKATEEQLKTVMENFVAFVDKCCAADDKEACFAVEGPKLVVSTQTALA
Nonstructural protein 1, sequence (Q194T2 whole entry): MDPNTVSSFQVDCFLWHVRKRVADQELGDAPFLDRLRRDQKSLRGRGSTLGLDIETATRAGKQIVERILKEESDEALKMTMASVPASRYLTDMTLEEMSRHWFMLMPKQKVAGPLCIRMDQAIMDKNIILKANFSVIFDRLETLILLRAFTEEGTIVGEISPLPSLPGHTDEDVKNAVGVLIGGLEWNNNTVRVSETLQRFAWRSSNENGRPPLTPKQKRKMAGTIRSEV

In the case of `COc1ccc(C)cc1NC(=O)C1CCCCC1C(=O)O` (centres undefined), the Ki (fMet-Leu-Phe receptor) is reported as > 66.7 µM (inactive).
With `COc1cc(NC(C)=O)c2ncccc2c1[N+](=O)[O-]` the IC50 [1] was > 50 µM (not active) and the IC50 [2] was > 50 µM (not active).
In the case of `CCOC(=O)C1=C(COC(=O)c2ccc([N+](=O)[O-])o2)NC(=O)NC1C` (centres undefined), the IC50 (H9c2) is reported as > 79 µM (inactive) and the AC50 (Caspase-6) is reported as 30 µM (active).
With `CCOC(=O)Cc1cc(O)n2nc(C)c(-c3ccccc3)c2n1` the AC50 (Cytochrome P450 2C19) was 22.4 µM (inconclusive), the Ki (fMet-Leu-Phe receptor) was 36.8 µM (inactive) and the AC50 (Cytochrome P450 2C9) was 39.8 µM (inconclusive).
With `CCN(CC)c1ccc(/C=N/C(C#N)=C(\N)C#N)cc1` the EC50 [3] was 281 µM (active), the EC50 [4] was > 150 µM (not active) and the EC50 [5] was 114 µM (inconclusive). For the same compound, the EC50 (Streptokinase A) was > 150 µM (not active), the EC50 (Streptococcus) was > 150 µM (not active) and the IC50 (Nonstructural protein 1) was > 100 µM (active). For the same compound, the Ki (fMet-Leu-Phe receptor) was > 66.7 µM (inactive).
In the case of `Cc1cc(/C=N/n2c(COc3ccccc3C)nc3ccccc3c2=O)c(O)c([N+](=O)[O-])c1`, the EC50 [6] is reported as > 150 µM (inactive), the EC50 [7] is reported as 1.37 µM (active) and the EC50 [8] is reported as 1 µM (active). For the same compound, the EC50 [9] was 6.51 µM (active), the IC50 [10] was 4.58 µM (active) and the AC50 (INS1) was 2.99 µM (active). For the same compound, the IC50 (Albumin) was > 94.1 µM (inactive).
In the case of `CCOC(=O)N1CCN(C(C(=O)NC2CCCC2)C(C)C)CC1` (centres undefined), the AC50 (Caspase-6) is reported as 12.2 µM (active).
For `CN1C(=O)c2cc(NC(=O)NC3CCCC3)ccc2OC[C@H]2O[C@@H](CC(=O)NC3CCC3)CC[C@@H]21`, the AC50 (HeLa) was 25.9 µM (active).

From ChEMBL document CHEMBL1201862, “PubChem BioAssay data set” (2004)
